The values that follow come from ChEMBL document CHEMBL5154848, “Synthesis of heterocyclic ring-fused analogs of HMG499 as novel degraders of HMG-CoA reductase that lower cholesterol” (Eur J Med Chem, 2022).

The target of assay [1] is T1, 3-hydroxy-3-methylglutaryl-coenzyme A reductase (Homo sapiens) (UniProt P04035).
T1 sequence (whole entry): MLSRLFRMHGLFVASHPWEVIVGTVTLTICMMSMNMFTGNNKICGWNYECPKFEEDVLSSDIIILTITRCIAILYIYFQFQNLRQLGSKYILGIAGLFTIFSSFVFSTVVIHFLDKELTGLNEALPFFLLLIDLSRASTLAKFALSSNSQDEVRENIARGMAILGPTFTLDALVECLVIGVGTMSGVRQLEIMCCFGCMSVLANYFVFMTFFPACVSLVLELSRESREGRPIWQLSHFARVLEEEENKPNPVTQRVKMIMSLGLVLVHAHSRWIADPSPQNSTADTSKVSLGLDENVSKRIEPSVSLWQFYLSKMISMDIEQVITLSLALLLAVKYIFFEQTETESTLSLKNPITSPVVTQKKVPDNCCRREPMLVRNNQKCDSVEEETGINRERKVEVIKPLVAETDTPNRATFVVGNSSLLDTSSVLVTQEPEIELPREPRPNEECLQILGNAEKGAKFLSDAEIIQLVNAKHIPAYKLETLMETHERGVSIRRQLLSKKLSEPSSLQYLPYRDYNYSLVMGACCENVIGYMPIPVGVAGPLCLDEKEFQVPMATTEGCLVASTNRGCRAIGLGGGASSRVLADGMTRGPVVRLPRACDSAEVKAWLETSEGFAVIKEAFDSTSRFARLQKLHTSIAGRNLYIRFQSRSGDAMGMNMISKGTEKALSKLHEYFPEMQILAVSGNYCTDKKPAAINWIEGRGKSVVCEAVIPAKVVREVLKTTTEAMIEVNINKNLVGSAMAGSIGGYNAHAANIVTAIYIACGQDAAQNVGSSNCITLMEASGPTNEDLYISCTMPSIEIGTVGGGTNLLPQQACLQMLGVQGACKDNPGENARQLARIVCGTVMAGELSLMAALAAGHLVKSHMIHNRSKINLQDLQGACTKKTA
Put plainly: Induction of HMGCR-T7 (unknown origin) degradation transfected in CHO-K1 cells assessed as HMGCR ubiquitination preincubated in sterol-depleted medium for 16 hrs followed by compound addition and measured after 4 hrs in presence of MG-132 by immuno-precipicitation analysis. It counts as cell-based. To be noted: DDE = dose-dependent effect.

Assay [2] deals with T2, 3-hydroxy-3-methylglutaryl-coenzyme A reductase (Cricetulus griseus, UniProt P00347).
T2 sequence (P00347 whole entry): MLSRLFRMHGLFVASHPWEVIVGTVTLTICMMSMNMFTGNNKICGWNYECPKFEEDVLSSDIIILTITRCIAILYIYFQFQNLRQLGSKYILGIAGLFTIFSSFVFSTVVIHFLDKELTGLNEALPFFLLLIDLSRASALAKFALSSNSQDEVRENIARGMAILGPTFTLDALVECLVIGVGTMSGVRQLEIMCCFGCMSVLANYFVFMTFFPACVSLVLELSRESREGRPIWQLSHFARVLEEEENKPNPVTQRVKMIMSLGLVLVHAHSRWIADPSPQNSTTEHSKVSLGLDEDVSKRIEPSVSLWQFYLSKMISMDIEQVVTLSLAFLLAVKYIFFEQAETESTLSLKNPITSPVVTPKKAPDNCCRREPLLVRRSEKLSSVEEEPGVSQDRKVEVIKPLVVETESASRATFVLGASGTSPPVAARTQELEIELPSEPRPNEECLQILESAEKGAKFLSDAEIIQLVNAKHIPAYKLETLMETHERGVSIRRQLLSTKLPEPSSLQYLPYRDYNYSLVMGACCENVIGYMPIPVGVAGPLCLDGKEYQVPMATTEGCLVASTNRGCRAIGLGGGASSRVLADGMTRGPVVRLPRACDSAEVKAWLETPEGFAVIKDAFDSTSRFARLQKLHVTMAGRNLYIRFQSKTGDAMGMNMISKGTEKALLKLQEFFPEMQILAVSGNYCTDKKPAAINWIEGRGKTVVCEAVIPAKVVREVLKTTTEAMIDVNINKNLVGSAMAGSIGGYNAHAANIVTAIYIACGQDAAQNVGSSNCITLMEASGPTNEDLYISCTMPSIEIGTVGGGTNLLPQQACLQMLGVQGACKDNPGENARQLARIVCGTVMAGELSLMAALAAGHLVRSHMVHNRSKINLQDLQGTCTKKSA
Briefly: Induction of degradation of endogenous HMGCR in CHO-7 cells assessed as decrease in protein level incubated for 16 hrs in sterol-depleted medium by immunoblot analysis. Format: cell-based. A general note: A western blot detects proteins with antibodies after separation by electrophoresis.

For assay [3], the system named is LX-2. Briefly: Antiproliferative activity against human LX2 cells assessed as reduction of TGF-beta1 induced proliferation by CCK-8 assay. It counts as functional, cell-based. To be noted: DDE = dose-dependent effect.
For assay [4], the system named is LX-2. Put plainly: Downregulation of TGF-beta-1-induced COL1A1 mRNA levels in serum starved human LX2 cells pretreated with TGF-beta-1 for 6 hrs followed by compound treatment for 24 hrs by SYBR green dye based qRT-PCR analysis. It counts as functional, cell-based. Particulars: dose <= 2.0 µM, DDE = dose-dependent effect. Background: Real-time PCR tracks product formation cycle by cycle.

The target in assay [5] is T2, 3-hydroxy-3-methylglutaryl-coenzyme A reductase. Put plainly: Induction of degradation of hamster HMGCR (TM1-8)-GFP (1 to 346 residues) transfected in CHO-7 cells incubated for 16 hrs in sterol-depleted medium by fluorescence based microplate reader assay. Format: cell-based.
Assay [6] concerns LX-2. Put plainly: Downregulation of TGF-beta-1-induced alpha-SMA protein level in serum starved human LX2 cells pretreated with TGF-beta-1 for 6 hrs followed by compound treatment for 24 hrs by Western blot analysis. To be noted: DDE = dose-dependent effect. Format: functional, cell-based.
Assay [7] concerns LX-2. Put plainly: Downregulation of TGF-beta-1-induced cholesterol levels in human LX2 cells starved in serum free medium for 2 hrs followed by stimulation with TGF-beta-1 for 6 hrs and measured 24 hrs after compound treatment by. Particulars: DDE = dose-dependent effect. Format: functional, cell-based.
A further assay relates to RAW264.7. Briefly: Downregulation of LPS-stimulated IL-6 mRNA levels in mouse RAW264.7 cells pretreated with LPS for 2 hrs followed by compound treatment for 24 hrs by SYBR green dye based qRT-PCR analysis. It counts as functional, cell-based. Particulars: dose <= 2.0 µM, DDE = dose-dependent effect.
Another assay relates to CHO-K1. Briefly: Downregulation of lovastatin-induced HMGCR expression in CHO-K1 cells incubated for 16 hrs by immunoblot analysis. Particulars: Cricetulus griseus, dose 1-10 µM, DDE = dose-dependent effect. Format: functional, cell-based.
Assay [8] deals with LX-2. Put plainly: Downregulation of TGF-beta-1-induced TGF-beta-1 mRNA levels in serum starved human LX2 cells pretreated with TGF-beta-1 for 6 hrs followed by compound treatment for 24 hrs by SYBR green dye based qRT-PCR analysis. To be noted: dose <= 2.0 µM, DDE = dose-dependent effect. Format: functional, cell-based.
Assay [9] can be described thus: Downregulation of HMGCR expression in CHO-K1 cells assessed as fold change in HMGCR expression at 3 uM incubated for 16 hrs by immunoblot analysis (reference value: 1.0). Format: functional, Cricetulus griseus.
Assay [10] in a line: Downregulation of HMGCR expression in CHO-K1 cells assessed as fold change in HMGCR expression at 1 uM incubated for 16 hrs by immunoblot analysis (reference value: 1.0). Format: functional, Cricetulus griseus.
The target in assay [11] is T3, 3-hydroxy-3-methylglutaryl-coenzyme A reductase (Cricetulus griseus) (UniProt P00347).
T3 sequence (whole entry): T2 sequence (P00347 whole entry)
Put plainly: Induction of degradation of wild type HMGCR in CHO-K1 cells by immunoblot analysis. It counts as cell-based. To be noted: DDE = dose-dependent effect.

Assay [12] deals with LX-2. Briefly: Downregulation of TGF-beta-1-induced alpha-SMA mRNA levels in serum starved human LX2 cells pretreated with TGF-beta-1 for 6 hrs followed by compound treatment for 24 hrs by SYBR green dye based qRT-PCR analysis. It counts as functional, cell-based. To be noted: dose <= 2.0 µM, DDE = dose-dependent effect.

For orientation: EC50 means the midpoint of the concentration-response curve. With `CC(=O)n1ncc2c1C(C)(C)C1=CC[C@H]3[C@@H]4CC[C@H]([C@H](C)CCC(=O)N5CCOCC5)[C@@]4(C)CC[C@@H]3[C@@]1(C)C2`, the Activity entry (in assay [1]; in the assay on LX-2 [3]; in the assay on LX-2 [4]; in the assay on LX-2 [6]; in the assay on LX-2 [7]; in the assay with RAW264.7) was “Dde” each time. Also, the Activity entry (with CHO-K1; with LX-2 [8]; in [11]; in the assay on LX-2 [12]) was “Dde” in each case. In addition, the EC50 was determined as 0.13 µM in [2] and 0.22 µM in [5]. Moreover, the “fold change (FC)” value came out at 0.1 in [9] and 0.3 in assay [10].
